Publication PMC12621043, “Un-LOK-ing a New Approach for Conformational Selective Targeting of STK10 (LOK)” (ACS Medicinal Chemistry Letters, 2025)

Each compound was assayed against T1, CDK2A (Homo sapiens, UniProt P24941) (assay: DSF Tm panel). Conditions: 10 μM compound.
T1 construct: purchased in-house DSF kinase panel (SGC-style construct names; the trailing letter is the construct ID)
Format: binding

| SMILES | ΔTm at 10 µM |
| --- | --- |
| COc1cccc(CNC(=O)Nc2ccc3cc2OCCOCCNc2ccn4ncc-3c4n2)c1 [compound 30] | 2.5 °C |
| COc1ccc(CNC(=O)Nc2ccc3cc2OCCOCCNc2ccn4ncc-3c4n2)cc1 [compound 31] | 3.3 °C |
| COc1ccc(CNC(=O)Nc2ccc3cc2OCCOCCNc2ccn4ncc-3c4n2)cc1F [compound 32] | 3.4 °C |
| COc1cc(CNC(=O)Nc2ccc3cc2OCCOCCNc2ccn4ncc-3c4n2)ccc1F [compound 33] | 2.7 °C |

The compounds below were run against T2, EPHB3A (Homo sapiens, UniProt P54753) (assay: DSF Tm panel). Conditions: 10 μM compound.
T2 construct: purchased in-house DSF kinase panel (SGC-style construct names; the trailing letter is the construct ID)
T2 sequence (P54753 34-998): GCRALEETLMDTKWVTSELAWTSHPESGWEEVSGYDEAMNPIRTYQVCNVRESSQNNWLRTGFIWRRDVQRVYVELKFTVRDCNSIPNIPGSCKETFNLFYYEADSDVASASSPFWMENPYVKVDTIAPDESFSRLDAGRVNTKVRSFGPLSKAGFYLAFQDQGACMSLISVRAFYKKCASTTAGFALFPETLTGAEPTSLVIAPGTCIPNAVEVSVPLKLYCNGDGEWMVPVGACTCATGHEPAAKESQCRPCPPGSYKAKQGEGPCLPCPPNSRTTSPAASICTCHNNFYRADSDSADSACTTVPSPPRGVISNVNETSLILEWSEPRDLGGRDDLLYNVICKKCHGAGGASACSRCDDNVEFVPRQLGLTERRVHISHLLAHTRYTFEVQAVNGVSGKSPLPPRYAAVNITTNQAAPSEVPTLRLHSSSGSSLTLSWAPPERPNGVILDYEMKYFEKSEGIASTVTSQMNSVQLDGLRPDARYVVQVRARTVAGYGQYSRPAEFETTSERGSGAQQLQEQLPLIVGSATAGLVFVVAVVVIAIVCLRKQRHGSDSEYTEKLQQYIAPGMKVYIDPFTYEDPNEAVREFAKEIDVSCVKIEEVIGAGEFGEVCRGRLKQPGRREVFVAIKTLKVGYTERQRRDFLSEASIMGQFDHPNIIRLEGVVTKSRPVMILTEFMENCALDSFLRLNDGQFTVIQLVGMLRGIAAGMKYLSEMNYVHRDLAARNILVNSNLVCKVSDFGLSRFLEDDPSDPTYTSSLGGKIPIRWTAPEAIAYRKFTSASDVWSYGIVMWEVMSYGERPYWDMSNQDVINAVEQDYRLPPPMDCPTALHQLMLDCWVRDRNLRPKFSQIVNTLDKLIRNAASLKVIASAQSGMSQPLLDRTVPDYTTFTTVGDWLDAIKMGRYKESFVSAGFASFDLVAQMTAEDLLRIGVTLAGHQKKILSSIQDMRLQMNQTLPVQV
Format: binding

| SMILES | ΔTm at 10 µM |
| --- | --- |
| COc1cccc(CNC(=O)Nc2ccc3cc2OCCOCCNc2ccn4ncc-3c4n2)c1 [compound 30] | 0.3 °C |
| COc1ccc(CNC(=O)Nc2ccc3cc2OCCOCCNc2ccn4ncc-3c4n2)cc1 [compound 31] | 0.8 °C |
| COc1ccc(CNC(=O)Nc2ccc3cc2OCCOCCNc2ccn4ncc-3c4n2)cc1F [compound 32] | 0.6 °C |
| COc1cc(CNC(=O)Nc2ccc3cc2OCCOCCNc2ccn4ncc-3c4n2)ccc1F [compound 33] | 0.8 °C |

Each compound was assayed against T3, CASKA (Homo sapiens, UniProt O14936) (assay: DSF Tm panel). Conditions: 10 μM compound.
T3 construct: purchased in-house DSF kinase panel (SGC-style construct names; the trailing letter is the construct ID)
T3 sequence (O14936 12-276): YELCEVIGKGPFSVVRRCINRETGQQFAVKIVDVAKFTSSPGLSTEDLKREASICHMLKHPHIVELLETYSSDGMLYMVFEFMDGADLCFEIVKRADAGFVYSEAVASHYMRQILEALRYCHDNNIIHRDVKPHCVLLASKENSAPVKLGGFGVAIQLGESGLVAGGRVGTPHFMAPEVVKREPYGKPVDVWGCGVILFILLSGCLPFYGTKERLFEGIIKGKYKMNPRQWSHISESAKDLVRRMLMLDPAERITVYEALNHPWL
Format: binding

| SMILES | ΔTm at 10 µM |
| --- | --- |
| COc1cccc(CNC(=O)Nc2ccc3cc2OCCOCCNc2ccn4ncc-3c4n2)c1 [compound 30] | 0.9 °C |
| COc1ccc(CNC(=O)Nc2ccc3cc2OCCOCCNc2ccn4ncc-3c4n2)cc1 [compound 31] | 1.8 °C |
| COc1ccc(CNC(=O)Nc2ccc3cc2OCCOCCNc2ccn4ncc-3c4n2)cc1F [compound 32] | 1.7 °C |
| COc1cc(CNC(=O)Nc2ccc3cc2OCCOCCNc2ccn4ncc-3c4n2)ccc1F [compound 33] | 0.9 °C |

Each compound was assayed against T4, STK39A (Homo sapiens, UniProt Q9UEW8) (assay: DSF Tm panel). Conditions: 10 μM compound.
T4 construct: purchased in-house DSF kinase panel (SGC-style construct names; the trailing letter is the construct ID)
Format: binding

| SMILES | ΔTm at 10 µM |
| --- | --- |
| COc1cccc(CNC(=O)Nc2ccc3cc2OCCOCCNc2ccn4ncc-3c4n2)c1 [compound 30] | 1.2 °C |
| COc1ccc(CNC(=O)Nc2ccc3cc2OCCOCCNc2ccn4ncc-3c4n2)cc1 [compound 31] | 1.2 °C |
| COc1ccc(CNC(=O)Nc2ccc3cc2OCCOCCNc2ccn4ncc-3c4n2)cc1F [compound 32] | 1.4 °C |
| COc1cc(CNC(=O)Nc2ccc3cc2OCCOCCNc2ccn4ncc-3c4n2)ccc1F [compound 33] | 1.2 °C |

The compounds below were run against T5, STK17BA (Homo sapiens, UniProt O94768) (assay: DSF Tm panel). Conditions: 10 μM compound.
T5 construct: purchased in-house DSF kinase panel (SGC-style construct names; the trailing letter is the construct ID)
T5 sequence (O94768 25-329): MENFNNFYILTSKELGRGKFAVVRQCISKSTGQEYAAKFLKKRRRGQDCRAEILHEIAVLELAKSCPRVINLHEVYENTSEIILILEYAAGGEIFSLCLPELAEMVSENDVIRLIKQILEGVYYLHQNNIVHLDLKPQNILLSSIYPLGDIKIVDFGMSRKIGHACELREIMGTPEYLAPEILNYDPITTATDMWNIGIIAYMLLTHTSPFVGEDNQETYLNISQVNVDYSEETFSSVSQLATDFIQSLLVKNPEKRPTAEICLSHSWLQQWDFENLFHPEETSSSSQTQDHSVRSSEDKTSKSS
Format: binding

| SMILES | ΔTm at 10 µM |
| --- | --- |
| COc1cccc(CNC(=O)Nc2ccc3cc2OCCOCCNc2ccn4ncc-3c4n2)c1 [compound 30] | 1.8 °C |
| COc1ccc(CNC(=O)Nc2ccc3cc2OCCOCCNc2ccn4ncc-3c4n2)cc1 [compound 31] | 2.6 °C |
| COc1ccc(CNC(=O)Nc2ccc3cc2OCCOCCNc2ccn4ncc-3c4n2)cc1F [compound 32] | 3.4 °C |
| COc1cc(CNC(=O)Nc2ccc3cc2OCCOCCNc2ccn4ncc-3c4n2)ccc1F [compound 33] | 2.7 °C |

Each compound was assayed against T6, FGFR2A (Homo sapiens, UniProt P21802) (assay: DSF Tm panel). Conditions: 10 μM compound.
T6 construct: purchased in-house DSF kinase panel (SGC-style construct names; the trailing letter is the construct ID)
T6 sequence (P21802 458-770): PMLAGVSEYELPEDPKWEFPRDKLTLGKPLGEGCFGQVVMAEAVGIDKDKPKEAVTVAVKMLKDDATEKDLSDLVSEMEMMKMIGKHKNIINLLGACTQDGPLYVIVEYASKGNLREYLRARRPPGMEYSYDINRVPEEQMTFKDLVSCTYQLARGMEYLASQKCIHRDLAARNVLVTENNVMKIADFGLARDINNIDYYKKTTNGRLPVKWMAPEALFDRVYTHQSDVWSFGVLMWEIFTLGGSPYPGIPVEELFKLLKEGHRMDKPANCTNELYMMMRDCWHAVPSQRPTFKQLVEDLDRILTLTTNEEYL
Format: binding

| SMILES | ΔTm at 10 µM |
| --- | --- |
| COc1cccc(CNC(=O)Nc2ccc3cc2OCCOCCNc2ccn4ncc-3c4n2)c1 [compound 30] | 3.1 °C |
| COc1ccc(CNC(=O)Nc2ccc3cc2OCCOCCNc2ccn4ncc-3c4n2)cc1 [compound 31] | 3.1 °C |
| COc1ccc(CNC(=O)Nc2ccc3cc2OCCOCCNc2ccn4ncc-3c4n2)cc1F [compound 32] | 2.8 °C |
| COc1cc(CNC(=O)Nc2ccc3cc2OCCOCCNc2ccn4ncc-3c4n2)ccc1F [compound 33] | 3.7 °C |

These compounds were tested against T7, DCAMKL1A (Homo sapiens, UniProt O15075) (assay: DSF Tm panel). Conditions: 10 μM compound.
T7 construct: purchased in-house DSF kinase panel (SGC-style construct names; the trailing letter is the construct ID)
T7 sequence (O15075 372-649): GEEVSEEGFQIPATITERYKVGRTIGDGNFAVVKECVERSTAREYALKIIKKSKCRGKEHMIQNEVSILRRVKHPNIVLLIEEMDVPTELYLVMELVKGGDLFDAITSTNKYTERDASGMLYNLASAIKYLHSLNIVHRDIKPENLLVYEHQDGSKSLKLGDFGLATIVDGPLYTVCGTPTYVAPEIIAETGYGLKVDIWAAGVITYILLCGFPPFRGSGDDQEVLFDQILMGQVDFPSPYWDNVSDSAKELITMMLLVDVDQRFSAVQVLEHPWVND
Format: binding

| SMILES | ΔTm at 10 µM |
| --- | --- |
| COc1cccc(CNC(=O)Nc2ccc3cc2OCCOCCNc2ccn4ncc-3c4n2)c1 [compound 30] | 1.2 °C |
| COc1ccc(CNC(=O)Nc2ccc3cc2OCCOCCNc2ccn4ncc-3c4n2)cc1 [compound 31] | 1.4 °C |
| COc1ccc(CNC(=O)Nc2ccc3cc2OCCOCCNc2ccn4ncc-3c4n2)cc1F [compound 32] | 1.6 °C |
| COc1cc(CNC(=O)Nc2ccc3cc2OCCOCCNc2ccn4ncc-3c4n2)ccc1F [compound 33] | 2.2 °C |

These compounds were tested against T8, MAP2K1A (Homo sapiens, UniProt Q02750) (assay: DSF Tm panel). Conditions: 10 μM compound.
T8 construct: purchased in-house DSF kinase panel (SGC-style construct names; the trailing letter is the construct ID)
T8 sequence (Q02750 68-361): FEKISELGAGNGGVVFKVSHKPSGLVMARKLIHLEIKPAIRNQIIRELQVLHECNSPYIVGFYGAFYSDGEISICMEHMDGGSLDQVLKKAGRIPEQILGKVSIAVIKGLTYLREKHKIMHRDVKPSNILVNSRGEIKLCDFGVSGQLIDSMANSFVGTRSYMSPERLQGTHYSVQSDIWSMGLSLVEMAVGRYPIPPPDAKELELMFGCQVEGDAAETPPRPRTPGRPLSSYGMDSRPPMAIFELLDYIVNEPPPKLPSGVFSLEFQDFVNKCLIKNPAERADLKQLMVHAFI
Format: binding
Method: The synthesized urea-based derivatives were evaluated in a panel of kinases by differential scanning fluorescence (DSF) to investigate their selectivity profile. A positive ΔT m in the DSF assay indicates stabilization of the protein upon ligand binding in comparison to its apo state, with higher thermal shifts generally correlating with stronger binding. For this purpose, we used our internal kinase selectivity panel (∼90 kinases) along with staurosporine as a positive control. […] This was also reflected in the overall low selectivity score (S) throughout the series, which is determined by the ratio between the number of kinases that are stabilized above 5 °C and the total number of kinases tested (Figure ). Motivated by these findings, we further validated the entire series by orthogonal binding and activity assays to determine the in vitro and cellular potency and selectivity of the developed series in comparison to the selected reference compounds. […]
was performed as previously described.[1,2] Briefly, recombinant protein kinase domains at a concentration of 2 μM were mixed with 10 μM compound in a buffer containing 20 mM HEPES, […]
probe (1 µl per mL). Subsequently, temperature-dependent protein unfolding profiles were […]
emission filters were set to 465 nm and 590 nm, respectively. The temperature was raised with a step rate of 3 °C per minute. […]
inflection point of the transition curve. […]
previously.[3] In brief, STK10, STK3, STK4 and SLK were obtained as plasmids cloned in […]
Plasmids were transfected into
KD concentration taken from TracerDB (tracerdb.org)[4] were pipetted into white 384-well

| SMILES | ΔTm at 10 µM |
| --- | --- |
| COc1cccc(CNC(=O)Nc2ccc3cc2OCCOCCNc2ccn4ncc-3c4n2)c1 [compound 30] | 0.6 °C |
| COc1ccc(CNC(=O)Nc2ccc3cc2OCCOCCNc2ccn4ncc-3c4n2)cc1 [compound 31] | 0.6 °C |
| COc1ccc(CNC(=O)Nc2ccc3cc2OCCOCCNc2ccn4ncc-3c4n2)cc1F [compound 32] | 0.7 °C |
| COc1cc(CNC(=O)Nc2ccc3cc2OCCOCCNc2ccn4ncc-3c4n2)ccc1F [compound 33] | 0.7 °C |

The compounds below were run against SLK (Homo sapiens, UniProt Q9H2G2) (assay: DSF Tm panel). Conditions: 10 μM compound.
Format: binding
Parameters: purchased in-house DSF kinase panel (SGC-style construct names; the trailing letter is the construct ID)

| SMILES | ΔTm at 10 µM |
| --- | --- |
| COc1cccc(CNC(=O)Nc2ccc3cc2OCCOCCNc2ccn4ncc-3c4n2)c1 [compound 30] | 2.1 °C |
| COc1ccc(CNC(=O)Nc2ccc3cc2OCCOCCNc2ccn4ncc-3c4n2)cc1F [compound 32] | 3.6 °C |
| COc1cc(CNC(=O)Nc2ccc3cc2OCCOCCNc2ccn4ncc-3c4n2)ccc1F [compound 33] | 2.4 °C |
